Data published in PMC7349657, “Efficient Targeted Degradation via Reversible and Irreversible Covalent PROTACs” (Journal of the American Chemical Society, 2020).

What was measured:
Assay type in all cases: cell-based
BTK [1] = biological target: T1, BTK (Homo sapiens, UniProt Q06187); assay: Time course of BTK degradation in Ramos and Mino cells; set-up: endogenous in cells; host or cells: Mino (ATCC CRL-3000), Ramos (ATCC CRL-1596), K562 (NCI-60); conditions: 100 nM PROTAC, Ramos cells (RC-3: Mino cells)
T1 sequence (Q06187 whole entry): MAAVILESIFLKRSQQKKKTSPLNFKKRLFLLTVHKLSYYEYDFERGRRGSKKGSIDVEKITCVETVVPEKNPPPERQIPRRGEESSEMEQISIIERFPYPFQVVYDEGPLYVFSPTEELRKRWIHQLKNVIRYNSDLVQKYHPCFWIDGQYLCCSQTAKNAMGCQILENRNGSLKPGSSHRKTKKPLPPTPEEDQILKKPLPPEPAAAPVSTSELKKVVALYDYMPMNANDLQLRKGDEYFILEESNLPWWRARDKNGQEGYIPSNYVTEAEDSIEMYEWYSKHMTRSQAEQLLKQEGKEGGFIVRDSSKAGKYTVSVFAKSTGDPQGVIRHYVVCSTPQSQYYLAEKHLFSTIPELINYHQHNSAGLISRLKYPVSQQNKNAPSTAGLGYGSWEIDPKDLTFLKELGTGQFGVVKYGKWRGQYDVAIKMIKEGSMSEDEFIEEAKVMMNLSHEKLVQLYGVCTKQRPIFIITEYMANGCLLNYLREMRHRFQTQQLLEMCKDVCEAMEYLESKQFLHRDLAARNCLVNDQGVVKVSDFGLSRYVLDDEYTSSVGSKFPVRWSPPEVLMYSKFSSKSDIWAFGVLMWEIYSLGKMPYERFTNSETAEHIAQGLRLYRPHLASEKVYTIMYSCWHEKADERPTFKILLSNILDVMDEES
Procedure: We followed the rate of BTK degradation facilitated by this compound series via a time course experiment in Ramos and Mino cells (Supporting Figure 3). The rates of degradation correlated well with the DC50 values observed after 24 h, with NC-1, IR-1, IR-2, and RC-3 degrading BTK within 2–4 h, while RC-2 and RC-1 required 6–24 h to reach maximum degradation.
Ramos (ATCC, CRL-1596), Mino (ATCC, CRL-3000), or K562 (NCI-60) cell lines were counted and diluted to 10^6 cell/mL, using 1 mL per well in a 24-well plate, and U2OS (ATCC HTB-96) cells overexpressing human BTK WT or C481S mutant were grown using 2 mL in a six-well plate (see Supporting Information). Cells were incubated with 1% DMSO or compound in indicated concentrations for 24 h unless indicated differently, or cells were left untreated. Lysates were prepared as previously described,[29] and samples were measured for total protein quantification by bicinchoninic acid (BCA) assay (#23225 ThermoFisher Scientific) supplemented with 4× loading buffer including 20 mM DTT, heated to 70 °C for 10 min, loaded into 4% SDS-PAGE gel, run for 45 min at 140 mV, then transferred into a nitrocellulose membrane (Biorad) using a Trans-Blot Turbo transfer system (Biorad). The membrane was stained with Ponceau (Sigma) to validate transfer for 10 min in gentle agitation then destained for 1 h with MQ water. The membrane was blocked with Licor blocking buffer (LIC927-70001) for 1 h, washed three times for 5 min with TBS-T, incubated with primary antibody BTK (D3H5) rabbit mAb (CST; 8547 S) overnight (16 h) at 4 °C, washed three times for 5 min with TBS-T, and incubated with primary antibody against β-actin (CST; 3700) for 1 h at 25 °C. Membrane was washed three times for 5 min with TBS-T, incubated with fluorescent secondary antibodies anti-mouse IgG Alexa Fluor 647 (CST: 4410S) and anti-rabbit-IgG IRDye 800(LICOR: 926-32211) for 1 h, then washed three times for 5 min with TBS-T, dried, and immediately imaged and analyzed using Licor Odyssey CLx. Prism (GraphPad) software was used to calculate degradation levels. We used second-order polynomial fits to estimate DC50 and Dmax values.
Supplementary Figure 3: BTK degradation time dependency.
Ramos (PI3I, RC-1, I R-1, R C-2, I R-2, NC-1) or Mino ( RC-3) cells were treated with 100 nM of PROTAC or DMSO for indicated times, subsequently harvested for BTK levels measurement via western blot.
(1 picture or pasted object on this page, not shown here)

BTK [2] = biological target: T1, BTK; assay: BTK degradation in patient-derived primary CLL cells (Western blot); set-up: endogenous in cells; conditions: 18 h
Procedure: To assess the PROTACs’ efficiency in a clinically relevant model, we tested their ability to induce BTK degradation in primary cells from chronic lymphocytic leukemia (CLL) patients.
Figure 4 Degradation of BTK in patient-derived CLL cells. Patient-derived primary CLL cells were treated with BTK PROTACs for 18 h, followed by measuring BTK levels via Western blot. M-IGHV/UM-IGHV: mutated/unmutated immunoglobulin heavy chain variable region (IGHV) gene.
The LC–MS/MS instrument consi sted of an Acquit y I-class UPLC system (Waters) and Xevo TQ-XS triple quadrupole mass spectrometer (Waters) equipped with an electrospray ion source. Chromatographic separation was done on UPLC BEH C18 column (50mm × 2.1mm, 1.7-µm, Waters) using 50-100% gradient of 95%-aqueous acetonitrile with 0.1% formic acid in aqueous 0.1% formic acid during 2.5 minut e s, with a flow rate of 0. 3 mL min−1 and column temperature 30°C. Samples kept at 10°C were automatically injected in a volume of 3µl.
MS parameters (positive ion mode): capillary voltage - 2. 0kV, source temperature - […]
Targeting BTK in CLL cells […]
Following incubation with PROTACs as detailed, cells were collected and lysed in cell lysis buffer (Cell Signaling Technology, Beverly, MA) containing Phosphatase Inhibitor Cocktail 2 and protease inhibitor Cocktail (Sigma-Aldrich, St. Louis, MO). […] Bands were detected using MyECL Imager (Thermo Scientific, […]

BTK [3] = biological target: T1, BTK; assay: Mechanism validation: pretreatment with ibrutinib, thalidomide-OH or bortezomib before PROTAC in Mino cells; set-up: endogenous in cells; host or cells: Mino (ATCC CRL-3000), Ramos (ATCC CRL-1596), K562 (NCI-60); conditions: 2 h pretreatment, then PROTAC 24 h

For N#CC(=CCCCCOCCOCCOCCOCCOc1cccc2c1C(=O)N(C1CCC(=O)NC1=O)C2=O)C(=O)N1CCCC(n2nc(-c3ccc(Oc4ccccc4)cc3)c3c(N)ncnc32)C1 (centres unmarked) [RC-2], the “time to degrade BTK / reach maximum degradation” value (BTK [1]) was 6 to 24 h.

For Nc1ncnc2c1c(-c1ccc(Oc3ccccc3)cc1)nn2C1CCCN(C(=O)C=CCCCCOCCOCCOCCOCCOc2cccc3c2C(=O)N(C2CCC(=O)NC2=O)C3=O)C1 (centres unmarked) [IR-2], the “time to degrade BTK / reach maximum degradation” value (BTK [1]) was 2 to 4 h and the BTK degradation level (BTK [2]) was “higher degradation levels than RC-2 and RC-3”.

Nc1ncnc2c1c(-c1ccc(Oc3ccccc3)cc1)nn2C1CCCN(C(=O)C=CCOCCOCCOCCOCCOCCOc2cccc3c2C(=O)N(C2CCC(=O)NC2=O)C3=O)C1 (centres unmarked) [IR-1] was tested, and the “time to degrade BTK / reach maximum degradation” value (BTK [1]) was 2 to 4 h.

CC(C)(C=C(C#N)C(=O)N1CCCC(n2nc(-c3ccc(Oc4ccccc4)cc3)c3c(N)ncnc32)C1)CCCOCCOCCOCCOCCOc1cccc2c1C(=O)N(C1CCC(=O)NC1=O)C2=O (centres unmarked) [RC-3] was tested, and the “time to degrade BTK / reach maximum degradation” value (BTK [1]) was 2 to 4 h.

In the case of Nc1ncnc2c1c(-c1ccc(Oc3ccccc3)cc1)nn2C1CCCN(C(=O)CCCCCCOCCOCCOCCOCCOc2cccc3c2C(=O)N(C2CCC(=O)NC2=O)C3=O)C1 (centres unmarked) [NC-1], the “time to degrade BTK / reach maximum degradation” value (BTK [1]) is reported as 2 to 4 h, the “BTK degradation after thalidomide-OH pretreatment” value (BTK [3]) is reported as “only slightly hindered by thalidomide” and the BTK degradation level (BTK [2]) is reported as “higher degradation levels than RC-2 and RC-3”.
